Publication PMC8540742, “New N-Substituted-1,2,4-triazole Derivatives of Pyrrolo[3,4-d]pyridazinone with Significant Anti-Inflammatory Activity—Design, Synthesis and Complementary In Vitro, Computational and Spectroscopic Studies” (International Journal of Molecular Sciences, 2021)

molecular target: T1, bovine serum albumin (BSA) (Bos taurus, UniProt P02769); experiment: intrinsic fluorescence quenching (ex […] nm); format: binding; conditions: […] K, pH […] BSA; static quenching; n about […]; subdomain IIIA by site markers; double-log
T1 construct: gene ALB; commercial native serum albumin (Sigma Aldrich, named for the FT-IR work), mature protein 583 residues, no tags
T1 sequence (P02769 25-607): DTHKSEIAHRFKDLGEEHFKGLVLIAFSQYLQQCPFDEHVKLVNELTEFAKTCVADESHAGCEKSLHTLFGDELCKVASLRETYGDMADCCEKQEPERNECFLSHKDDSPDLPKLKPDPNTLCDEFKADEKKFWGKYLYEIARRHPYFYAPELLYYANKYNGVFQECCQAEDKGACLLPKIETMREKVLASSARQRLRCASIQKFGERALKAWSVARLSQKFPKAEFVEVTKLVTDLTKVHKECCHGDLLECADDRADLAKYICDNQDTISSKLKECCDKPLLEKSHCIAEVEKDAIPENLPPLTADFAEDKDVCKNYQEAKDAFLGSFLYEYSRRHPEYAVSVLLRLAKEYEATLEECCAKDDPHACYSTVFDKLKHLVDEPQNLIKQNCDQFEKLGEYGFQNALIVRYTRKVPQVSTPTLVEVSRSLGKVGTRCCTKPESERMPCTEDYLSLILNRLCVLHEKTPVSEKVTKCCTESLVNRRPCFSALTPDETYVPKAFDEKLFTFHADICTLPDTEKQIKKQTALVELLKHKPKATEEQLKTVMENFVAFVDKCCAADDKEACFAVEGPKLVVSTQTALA

| Compound | Binding / Kb × 10^4 [dm^3mol^-1] |
| --- | --- |
| CCCCn1c(C)c2c(OCc3nn(CN4CCN(c5ccc(C)cc5)CC4)c(=S)n3-c3ccccc3)nn(C)c(=O)c2c1C [6b, 6-butyl-3,5,7-trimethyl-1-[[4-phenyl-2-[[4-[(4-methyl)phenyl]piperazin-1-yl]methyl]-3-thioxo-2H-1,2,4-triazol-5-yl]methoxy]pyrrolo[3,4-d]pyridazin-4-one] | 8.13 × 10^4 dm^3 mol^-1 |
| CCCCn1c(C)c2c(OCc3nn(CN4CCN(c5cccc(C(F)(F)F)c5)CC4)c(=S)n3-c3ccc(OC)cc3)nn(C)c(=O)c2c1C [5c, 6-butyl-1-[[4-(4-methoxyphenyl)-2-[[4-[3-(trifluoromethyl)phenyl]piperazin-1-yl]methyl]-3-thioxo-2H-1,2,4-triazol-5-yl]methoxy]-3,5,7-trimethyl-pyrrolo[3,4-d]pyridazin-4-one] | 9.33 × 10^4 dm^3 mol^-1 |
| CCCCn1c(C)c2c(OCc3nn(CN4CCN(c5ccc(C)cc5)CC4)c(=S)n3-c3ccc(OC)cc3)nn(C)c(=O)c2c1C [6c, 6-butyl-1-[[4-(4-methoxyphenyl)-2-[[4-[(4-methyl)phenyl]piperazin-1-yl]methyl]-3-thioxo-2H-1,2,4-triazol-5-yl]methoxy]-3,5,7-trimethyl-pyrrolo[3,4-d]pyridazin-4-one] | 9.55 × 10^4 dm^3 mol^-1 |
| CCCCn1c(C)c2c(OCc3nn(CN4CCN(c5ccccc5)CC4)c(=S)n3-c3ccccc3)nn(C)c(=O)c2c1C [4b, 6-butyl-3,5,7-trimethyl-1-[[4-phenyl-2-[(4-phenylpiperazin-1-yl)methyl]-3-thioxo-2H-1,2,4-triazol-5-yl]methoxy]pyrrolo[3,4-d]pyridazin-4-one] | 6.61 × 10^4 dm^3 mol^-1 |
| CCCCn1c(C)c2c(OCc3nn(CN4CCN(c5cccc(C(F)(F)F)c5)CC4)c(=S)n3-c3ccccc3)nn(C)c(=O)c2c1C [5b, 6-butyl-3,5,7-trimethyl-1-[[4-phenyl-2-[[4-[3-(trifluoromethyl)phenyl]piperazin-1-yl]methyl]-3-thioxo-2H-1,2,4-triazol-5-yl]methoxy]pyrrolo[3,4-d]pyridazin-4-one] | 5.75 × 10^4 dm^3 mol^-1 |
| CCCCn1c(C)c2c(OCc3nn(CN4CCN(c5cccc(C(F)(F)F)c5)CC4)c(=S)n3C)nn(C)c(=O)c2c1C [5a, 6-butyl-3,5,7-trimethyl-1-[[4-methyl-2-[[4-[3-(trifluoromethyl)phenyl]piperazin-1-yl]methyl]-3-thioxo-2H-1,2,4-triazol-5-yl]methoxy]pyrrolo[3,4-d]pyridazin-4-one] | 8.13 × 10^4 dm^3 mol^-1 |
| CCCCn1c(C)c2c(OCc3nn(CN4CCN(c5ccccc5)CC4)c(=S)n3C)nn(C)c(=O)c2c1C [4a, 6-butyl-3,5,7-trimethyl-1-[[4-methyl-2-[(4-phenylpiperazin-1-yl)methyl]-3-thioxo-2H-1,2,4-triazol-5-yl]methoxy]pyrrolo[3,4-d]pyridazin-4-one] | 8.91 × 10^4 dm^3 mol^-1 |
| CCCCn1c(C)c2c(OCc3nn(CN4CCN(c5ccc(C)cc5)CC4)c(=S)n3C)nn(C)c(=O)c2c1C [6a, 6-butyl-3,5,7-trimethyl-1-[[4-methyl-2-[[4-[(4-methyl)phenyl]piperazin-1-yl]methyl]-3-thioxo-2H-1,2,4-triazol-5-yl]methoxy]pyrrolo[3,4-d]pyridazin-4-one] | 4.90 × 10^4 dm^3 mol^-1 |

The next lines start with the values.

| Binding / Kb × 10^4 [dm^3mol^-1] | Compound |
| --- | --- |
| 9.33 × 10^4 dm^3 mol^-1 | CCCCn1c(C)c2c(OCc3nnc(SCC(=O)N4CCN(c5ccccc5)CC4)n3-c3ccc(OC)cc3)nn(C)c(=O)c2c1C [7c, 6-butyl-3,5,7-trimethyl-1-[[4-(4-methoxy)phenyl-3-[2-oxo-2-(4-phenylpiperazin-1-yl)ethyl]sulfanyl-2H-1,2,4-triazol-5-yl]methoxy]pyrrolo[3,4-d]pyridazin-4-one] |
| 4.68 × 10^4 dm^3 mol^-1 | CCCCn1c(C)c2c(OCc3nnc(SCC(=O)N4CCN(c5ccccc5)CC4)n3C)nn(C)c(=O)c2c1C [7a, 6-butyl-3,5,7-trimethyl-1-[[4-methyl-3-[2-oxo-2-(4-phenylpiperazin-1-yl)ethyl]sulfanyl-2H-1,2,4-triazol-5-yl]methoxy]pyrrolo[3,4-d]pyridazin-4-one] |
| 9.33 × 10^4 dm^3 mol^-1 | CCCCn1c(C)c2c(OCc3nnc(SCC(=O)N4CCN(c5ccccc5)CC4)n3-c3ccccc3)nn(C)c(=O)c2c1C [7b, 6-butyl-3,5,7-trimethyl-1-[[4-phenyl-3-[2-oxo-2-(4-phenylpiperazin-1-yl)ethyl]sulfanyl-2H-1,2,4-triazol-5-yl]methoxy]pyrrolo[3,4-d]pyridazin-4-one] |
